Experimental data published in US20200384072A1, “THERAPY OF IONIZING RADIATION-INDUCED DISORDERS” (SCK-CEN, priority 2019, published 2020).

Experiments:
[1] = test system: primary brain microvascular endothelial cells (pBMECs); assay: γ-H2AX counts after local 3×3 mm X-ray irradiation (irradiated and bystander zones), pBMECs; type: cell-based, mouse; conditions: 1 Gy, 3 h post-irradiation
Procedure: Cortices, from 10-12 week old mice, were isolated by removing cerebellum, striatum, optic nerves, brain white matter, outer vessels and meninges. After homogenization with a Dounce homogenizer in WBB (Washing Buffer B: HMS, 10 mM Hepes, 0.35 g/L NaHCO3, 0.1% BSA), the homogenate was mixed with 30% dextran in WBB and centrifuged at 3000×g for 25 min at 4° C. The pellet containing the vascular component was then resuspended in WBB and filtered through a 60 μm NY60 Nylon Net Filter (Millipore, Darmstadt, Germany). Following centrifugation at 1000×g for 7 min at room temperature, the pellet was digested in collagenase/dispase supplement with DNase I (Roche Diagnostics, Vilvoorde, Belgium) and TLCK (Tosyl, Lysin chloromethyl ketone, sigma-aldrich) for 33 min at 37° C. in a shaking water bath. The digested capillary suspension was then seeded after multiple washing steps on wells coated with matrigel or glass coated with Corning Cell-Tak (VWR, Leuven, Belgium). For the isolation of intact capillaries the protocol was aborted just before the digestion step.
A defined area of the cell culture dishes were exposed to X-rays (1Gy or 20 Gy) by using a small animal radiation research platform (SARRP, Xstrahl, 220 kV, 13 mA), making use of a 3×3 mm collimator. Whole dish irradiation was done using a 10×10 cm broad-beam collimator, while localized Irradiation was performed with a 3×3 mm collimator. A Gafchromic RTQA2 film, with a sensitivity of 0.02 Gy, was placed underneath the cell dishes in order to delineate the irradiated zone.
Cells were fixed for 25 min with 4% formaldehyde (VWR) and blocked for 30 min with blocking buffer (5% normal goat serum, 1% bovine serum albumin (BSA), 0.2% Triton X-100 in PBS D+). Overnight incubation with primary antibody (1/500 anti-γ-H2AX in dilution buffer, 1/10 blocking buffer in PBS D+) was followed by a 1 h incubation with 1/400 XX-biotin-goat-anti-mouse antibody in dilution buffer, followed by a 1 h incubation with 1/400 streptavidin-alexa488 in PBS D+. Nuclei were stained with 1 μg/mL DAPI in PBS D+ for 10 min and cells were kept in PBS D+ supplemented with NaN3 at 4° C. All steps except the overnight incubation which was carried out at 4° C., were carried out at room temperature and cell cultures were rinsed thoroughly with PBS D+ between all incubation steps. Imaging was performed with an automated BD Pathway 435 imaging system (10× objective, 10×10 montage resulting in an overall image size of 8.5×6.5 mm). We then quantified the number of γ-H2AX-foci positive nuclei in the directly irradiated and bystander areas and expressed the count as a percentage relative to the number of nuclei and subtracted the percentage of background γ-H2AX signal in non-irradiated paired control cultures for each experiment. For counting γ-H2AX foci, images were thresholded to remove background pixel noise below the foci level. Where applicable, results were normalized against vehicle (bar charts with a 100% vehicle bar without statistical variability or a horizontal line).

TICAE cells [2] = assay: DNA damage, gamma H2AX and TP53BP1 foci, TICAE cells; type: cell-based, human; conditions: 100 μM TAT-Gap19, 0.1 and 5 Gy, 1 h p.i.
Procedure: To detect DNA double strand breaks after IR, TICAE and TIME cells were seeded in Nunc™ Lab-Tek™ Chamber Slide (Thermo Fisher Scientific, Asse, Belgium) in 8 replicates, at seeding density of 50 000 cells/well. Two days later, cells reached 100% confluence. At 30 min before IR, a fresh medium was added to the cells with or without 100 μM TAT-Gap19. At 1 h post irradiation, cells were fixed with 2% PFA (Sigma-Aldrich Co. LCC, Diegem, Belgium) and permeabilized with 0.25% Triton X-100 (Sigma-Aldrich Co. LCC, Diegem, Belgium) in PBS. Cells were blocked for 1 h in 1% normal goat serum (Thermo Fisher Scientific, Asse, Belgium) in Tris-NaCl (Perkin Elmer, Brussels, Belgium). Thereafter, staining with 1/300 primary anti-gamma H2AX antibody (Merck-Millipore #05-636) and 1/1000 anti-TP53BP1 antibody (Novus Biologicals #NB100-304) was performed for 1 h at 37° C. After washing 3 times with PBS, secondary Alexa Fluor 488 and 568 antibodies (Life Technologies, Merelbeke, Belgium) were applied for 1 h at 37° C. Finally, the slides were mounted using ProLong Diamond Antifade Mountant with DAPI (Life Technologies, Merelbeke, Belgium), and cells were visualized with an Eclipse Ti automated inverted wide-field epifluorescence microscope (Nikon, Brussels, Belgium) equipped with a 20×Plan Fluor objective (NA 0.6) and an Andor Ixon EMCCD camera, controlled by the MS Elements software. […]

[3] = test system: non-alcoholic fatty liver mouse model; conditions: cited from earlier work
TICAE cells [4] = assay: Intracellular ROS, CM-H2DCFDA flow cytometry, TICAE cells; type: cell-based, human; conditions: 100 μM TAT-Gap19, 0.1 Gy, 45 min
Procedure: TICAE and TIME cells were seeded in a 6-well plate at a density of 250000 cells/well. Three days later, cells reached 100% confluence. At 30 minutes before X-ray exposure (0.1 and 5 Gy), cells were washed with PBS to remove traces of the original medium. Afterwards, HMS supplemented with 25 mM HEPES (Sigma-Aldrich Co. LCC, Diegem, Belgium) and 10 μmol/L of the CM-H2DCFDA dye (Sigma-Aldrich Co. LCC, Diegem, Belgium) was added to the cells, and 100 μM TAT-Gap19 (Genosphere Biotechnologies, Paris, France) was added to block the Cx43 hemichannels. After irradiation, cells were washed with PBS and a 0.05% trypsin solution supplemented with 0.02% EDTA was used to detach the cells, followed by a 5 minute incubation time (37° C., 5% CO2). After trypsinization, the cells were transferred into a 1.5 mL tube and centrifuged for […] at 200 RCF. The supernatant was discard and the pellet was re-suspended in MSS without Ca2+ and Mg2+(Sigma-Aldrich Co. LCC, Diegem, Belgium). Finally, 1 μg/mL PI was added to each sample to exclude the dead cells. A positive control, 20 μmol/L tert-butyl hydroxyperoxide (tBHP), was added to the cells and incubated for 15 min. Intracellular ROS was assessed by analyzing the fluorescent signals using BD Accuri™ c6 Flow Cytometry (BD Biosciences, San Jose, Calif. USA). At least 10 000 events were measured. […]

TAT-Gap19: connexin mimetic peptide, amino-acids 128-136 of the CL of Cx43 (SEQ ID NO: 2), Gap19 linked to TAT sequence; Cx43 hemichannel inhibitor (YGRKKRRQRRRKQIEIKKFK)
γ-H2AX counts in the bystander zone (normalized to vehicle) [1]: only had effect in the bystander zone | γ-H2AX counts in the irradiated area (normalized to vehicle) [1]: only had effect in the bystander zone | gamma H2AX, TP53BP1 and colocalized foci (radiation-induced DNA damage) (TICAE cells [2]): not affected | IL-1B [3]: significantly decrease | TNF-α [3]: significantly decrease | intracellular ROS generation (flow cytometry) (TICAE cells [4]): significantly reduced intracellular ROS generation
